From ChEMBL document CHEMBL3046509, “Synthesis and structure--activity relationships of substituted cinnamic acids and amide analogues: a new class of herbicides” (2009)

How the values were obtained:
Assay in all cases: whole plant or invertebrate
Format in all cases: functional
Details in all cases: Raphanus sativus, Japanese White, 120 h
[1] = system: Radish
Description: Herbicidal activity against Raphanus sativus var.Japanese White (radish) assessed as inhibition of seed germination at 100 ppm at 25 degC measured after 5 days

[2] = system: Radish; remark: listed apart in the source
Description: Herbicidal activity against Raphanus sativus var.Japanese White (radish) assessed as inhibition of seed germination at 50 ppm at 25 degC measured after 5 days

[3] = system: Radish; remark: listed apart in the source
Description: Herbicidal activity against Raphanus sativus var.Japanese White (radish) assessed as inhibition of seed germination at 200 ppm at 25 degC measured after 5 days

SMILES | inhibition at 100 ppm [1] | inhibition at 50 ppm [2] | inhibition at 200 ppm [3]
O=C(/C=C/c1ccccc1[N+](=O)[O-])Nc1ccccc1 | 86.7% | 73.3% | 100%
COc1ccc(/C=C/C(=O)Nc2ccc(C)cc2)cc1 | 93.3% | 70% | 100%
O=C(O)/C=C/c1ccccc1[N+](=O)[O-] | 86.7% | 70% | 100%
O=C(/C=C/c1ccccc1[N+](=O)[O-])Nc1ccccc1Cl | 93.3% | 86.7% | 100%
O=C(/C=C/c1cccc([N+](=O)[O-])c1)Nc1ccccc1Cl | 93.3% | 83.3% | 100%
O=C(/C=C/c1ccc([N+](=O)[O-])cc1)Nc1ccccc1Cl | 86.7% | 80% | 100%
O=C(/C=C/c1cccc(Cl)c1)Nc1ccccc1Cl | 53.3% | 33.3% | 76.7%
COc1ccc(/C=C/C(=O)Nc2ccccc2Cl)cc1 | 83.3% | 76.7% | 96.7%
O=C(/C=C/c1cccc(O)c1)Nc1ccccc1Cl | 80% | 56.7% | 93.3%
O=C(O)/C=C/c1cccc(O)c1 | 86.7% | 56.7% | 100%
O=C(O)/C=C/c1ccc([N+](=O)[O-])cc1 | 93.3% | 70% | 96.7%
O=C(/C=C/c1cccc(Cl)c1)Nc1ccccc1 [3-CHLORO-CINNAMANILIDE] | 93.3% | 70% | 100%
O=C(O)/C=C/c1cccc(Cl)c1 [3-CHLORO-CINNAMIC ACID] | 76.7% | 53.3% | 93.3%
O=C(/C=C/c1cccc(O)c1)Nc1ccccc1 [3-HYDROXY-CINNAMANILIDE] | 86.7% | 53.3% | 100%
O=C(/C=C/c1cccc([N+](=O)[O-])c1)Nc1ccccc1 [3-NITRO-CINNAMANILIDE] | 73.3% | 70% | 100%
O=C(O)/C=C/c1cccc([N+](=O)[O-])c1 [3-NITRO-CINNAMIC ACID] | 80% | 70.3% | 100%
COc1ccc(/C=C/C(=O)Nc2ccccc2)cc1 [4-METHOXY-CINNAMANILIDE] | 76.7% | 53.3% | 93.3%
COc1ccc(/C=C/C(=O)O)cc1 [4-METHOXYCINNAMIC ACID] | 66.7% | 56.7% | 93.3%
Cc1ccc(NC(=O)/C=C/c2ccccc2[N+](=O)[O-])cc1 [4-METHYL-(2'-NITRO)CINNAMANILIDE] | 80% | 63.3% | 93.3%
Cc1ccc(NC(=O)/C=C/c2cccc(Cl)c2)cc1 [4-METHYL-(3'-CHLORO)CINNAMANILIDE] | 83.3% | 70% | 93.3%
Cc1ccc(NC(=O)/C=C/c2cccc([N+](=O)[O-])c2)cc1 [4-METHYL-(3'-NITRO)CINNAMANILIDE] | 86.7% | 73.3% | 96.7%
O=C(/C=C/c1ccccc1[N+](=O)[O-])Nc1ccc([N+](=O)[O-])cc1 [4-NITRO-(2'-NITRO)CINNAMANILIDE] | 86.7% | 73.3% | 96.7%
O=C(/C=C/c1ccc([N+](=O)[O-])cc1)Nc1ccc([N+](=O)[O-])cc1 [4-NITRO-(4'-NITRO)CINNAMANILIDE] | 66.7% | 60% | 93.3%
O=C(/C=C/c1ccc([N+](=O)[O-])cc1)Nc1ccccc1 [4-NITRO-CINNAMANILIDE] | 90% | 83.3% | 100%
O=C(O)/C=C/c1ccc(O)cc1 [COUMARIC ACID] | 73.3% | 53.3% | 100%
CSc1nnc(C(C)(C)C)c(=O)n1N [METRIBUZIN] | 93.3% | 80% | 100%
